Reference: patent US12577231B2, “Androgen receptor PROTACS” (GlaxoSmithKline Intellectual Property Development Limited, priority 2023, dated 2026)

Molecular target: T1, Androgen Receptor dual T878A/L702H mutant protein (Homo sapiens, UniProt P10275, L702H/T878A)
T1 construct: host or cells: MDA-PCa-2b
T1 sequence (P10275 1-920 L702H/T878A): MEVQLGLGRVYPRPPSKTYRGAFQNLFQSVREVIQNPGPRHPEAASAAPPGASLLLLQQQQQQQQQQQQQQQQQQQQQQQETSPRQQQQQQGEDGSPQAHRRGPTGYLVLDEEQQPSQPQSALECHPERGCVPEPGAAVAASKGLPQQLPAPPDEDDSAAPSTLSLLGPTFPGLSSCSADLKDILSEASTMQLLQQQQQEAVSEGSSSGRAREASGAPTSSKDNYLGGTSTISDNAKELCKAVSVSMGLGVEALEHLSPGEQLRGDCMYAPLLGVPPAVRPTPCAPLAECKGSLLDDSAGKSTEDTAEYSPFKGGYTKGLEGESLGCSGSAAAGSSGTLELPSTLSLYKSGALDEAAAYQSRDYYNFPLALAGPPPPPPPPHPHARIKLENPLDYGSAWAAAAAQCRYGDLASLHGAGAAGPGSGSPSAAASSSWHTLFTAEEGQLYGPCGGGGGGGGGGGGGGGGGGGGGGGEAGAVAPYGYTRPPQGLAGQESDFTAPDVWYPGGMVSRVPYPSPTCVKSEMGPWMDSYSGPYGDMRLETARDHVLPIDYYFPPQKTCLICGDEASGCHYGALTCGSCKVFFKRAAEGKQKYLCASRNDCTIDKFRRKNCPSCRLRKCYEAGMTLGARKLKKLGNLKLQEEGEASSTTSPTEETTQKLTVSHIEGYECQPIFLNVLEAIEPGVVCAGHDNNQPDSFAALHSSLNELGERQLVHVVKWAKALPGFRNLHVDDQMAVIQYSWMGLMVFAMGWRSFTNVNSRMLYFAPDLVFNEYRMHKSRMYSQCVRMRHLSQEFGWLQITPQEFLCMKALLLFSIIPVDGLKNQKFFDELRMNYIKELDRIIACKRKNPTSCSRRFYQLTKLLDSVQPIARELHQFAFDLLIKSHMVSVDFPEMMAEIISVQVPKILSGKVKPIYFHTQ
Assay: Dual Mutant (T878A/L702H) Androgen Receptor Degradation Assay (HTRF, MDA-PCa-2b cells)
Type: cell-based
Conditions: 18 h, 18 h incubation, read-out: mean asymptote max
Description: Degradation of Androgen Receptor dual T878A/L702H mutant protein in human MDA-PCa-2b (ATCC) cells treated with PROTACs was quantified using the HTRF Human Androgen Receptor Detection Kit (PerkinElmer) in 384 well assay plate format. 10 mM DMSO (Sigma-Aldrich) stock solutions of PROTACs were prepared and diluted across an 11 concentration, 3-fold increment range, and 25 nL dispensed into a white opaque bottomed 384 well assay plate (Thermofisher) using an acoustic ECHO dispenser (Labcyte). Cells were cultured in growth medium (BRFF—HPC-1 (Athena ES) supplemented with 20% FBS (Gibco), penicillin 50U/mL and streptomycin 50 μg/mL (Gibco, #15140-122)) in collagen I or poly-D-lysine coated T175 flasks (Corning, #356487 or #356539, respectively). For the assay, cells were harvested from the flask, centrifuged at 200 g for 5 min and then resuspended in the growth medium. 25 μl of cell suspension containing 10,000 cells was dispensed into each well of the assay plate containing the test compounds, which was then incubated for 18 h at 37° C./5% CO2. Control wells were included on each assay plate, with assay medium without cells being the no AR remaining 100% effect control, and cells treated with DMSO vehicle only, without PROTAC, the 0% effect control. After 18 h incubation 8 μl of supplemented lysis buffer from HTRF kit was added to each well and the plate shaken at 500 rpm for 1 h at room temperature. 8 μl of antibody mix in Detection buffer from HTRF kit was added to each well and the plate was incubated for 2 h in dark at mom temperature. The fluorescence was measured at both 620 nm and 665 nm using an excitation wavelength of 337 nm with a PHERAstar microplate reader (BMG Labtech) and the % AR protein remaining in each well was calculated by normalising the HTRF ratio (665 nm signal/620 nm signal) value to the control wells mentioned above. Parameters corresponding to the potency and efficacy estimates of the PROTACs were obtained from these normalised values using curve fitting software (IDBS ActivityBase). These included the DC50 and the Dmax estimates. Two versions of the DC50, called relative DC50 and absolute DC50, were typically generated. These are the inflection point of a fitted 4 parameter sigmoidal response curve and the interpolated concentration of PROTAC corresponding to 50% of the protein being degraded, respectively. The Dmax parameter was the maximum experimentally observed degradation and the asymptote max parameter the fitted response curve asymptote maximum.

| Compound | Dmax |
| --- | --- |
| CC1(C)[C@H](NC(=O)c2ccc(N3CCC(CN4CCC(n5ncc6c(N7CCC(=O)NC7=O)cccc65)CC4)CC3)c(F)c2)C(C)(C)[C@H]1Oc1ccc(C#N)c(Cl)c1 [Example 1, N-((1r,3r)-3-(3-Chloro-4-cyanophenoxy)-2,2,4,4-tetramethylcyclobutyl)-4-(4-((4-(4-(2,4-dioxotetrahydropyrimidin-1(2H)-yl)-1H-indazol-1-yl)piperidin-1-yl)methyl)piperidin-1-yl)-3-fluorobenzamide] | ≥ 50% |
| COc1cc(O[C@H]2C(C)(C)[C@H](NC(=O)c3ccc(N4CCC(CN5CCC(n6ccc7c(N8CCC(=O)NC8=O)cccc76)CC5)CC4)c(F)c3)C2(C)C)ccc1C#N [Example 22, N-((1r,3r)-3-(4-Cyano-3-methoxyphenoxy)-2,2,4,4-tetramethylcyclobutyl)-4-(4-((4-(4-(2,4-dioxotetrahydropyrimidin-1(2H)-yl)-1H-indol-1-yl)piperidin-1-yl)methyl)piperidin-1-yl)-3-fluorobenzamide] | ≥ 50% |
| Cc1ccc2c(O[C@H]3C(C)(C)[C@H](NC(=O)c4ccc(N5CCC(CN6CCC(n7ncc8c(N9CCC(=O)NC9=O)cccc87)CC6)CC5)c(F)c4)C3(C)C)ccc(C#N)c2n1 [Example 7, N-((1r,3r)-3-((8-cyano-2-methylquinolin-5-yl)oxy)-2,2,4,4-tetramethylcyclobutyl)-4-(4-((4-(4-(2,4-dioxotetrahydropyrimidin-1(2H)-yl)-1H-indazol-1-yl)piperidin-1-yl)methyl)piperidin-1-yl)-3-fluorobenzamide] | ≥ 50% |
| CC1(C)[C@H](NC(=O)c2ccc(N3CCC(CN4CCC(n5ccc6c(N7CCC(=O)NC7=O)c(F)ccc65)CC4)CC3)c(F)c2)C(C)(C)[C@H]1Oc1ccc(C#N)c(Cl)c1 [Example 12, N-((1r,3r)-3-(3-Chloro-4-cyanophenoxy)-2,2,4,4-tetramethylcyclobutyl)-4-(4-((4-(4-(2,4-dioxotetrahydropyrimidin-1(2H)-yl)-5-fluoro-1H-indol-1-yl)piperidin-1-yl)methyl)piperidin-1-yl)-3-fluorobenzamide] | ≥ 50% |
| Cc1c(O[C@H]2C(C)(C)[C@H](NC(=O)c3ccc(N4CCC(CN5CCC(n6ncc7c(N8CCC(=O)NC8=O)cccc76)CC5)CC4)c(F)c3)C2(C)C)ccc(C#N)c1Cl [Example 2, N-((1r,3r)-3-(3-Chloro-4-cyano-2-methylphenoxy)-2,2,4,4-tetramethylcyclobutyl)-4-(4-((4-(4-(2,4-dioxotetrahydropyrimidin-1(2H)-yl)-1H-indazol-1-yl)piperidin-1-yl)methyl)piperidin-1-yl)-3-fluorobenzamide] | ≥ 50% |
| CC1(C)[C@H](NC(=O)c2ccc(N3CCC(CN4CC[C@H](n5ncc6c(N7CCC(=O)NC7=O)cccc65)[C@H](F)C4)CC3)c(F)c2)C(C)(C)[C@H]1Oc1ccc(C#N)c(Cl)c1 [Example 14, N-((1r,3r)-3-(3-Chloro-4-cyanophenoxy)-2,2,4,4-tetramethylcyclobutyl)-4-(4-(((3R,4S)-4-(4-(2,4-dioxotetrahydropyrimidin-1(2H)-yl)-1H-indazol-1-yl)-3-fluoropiperidin-1-yl)methyl)piperidin-1-yl)-3-fluorobenzamide] | ≥ 50% |
| CC1(C)[C@H](NC(=O)c2ccc(N3CCC(CN4CC[C@H](n5ncc6c(N7CCC(=O)NC7=O)cccc65)C4)CC3)c(F)c2)C(C)(C)[C@H]1Oc1ccc(C#N)c(Cl)c1 [Example 10, N-((1r,3r)-3-(3-Chloro-4-cyanophenoxy)-2,2,4,4-tetramethylcyclobutyl)-4-(4-(((S)-3-(4-(2,4-dioxotetrahydropyrimidin-1(2H)-yl)-1H-indazol-1-yl)pyrrolidin-1-yl)methyl)piperidin-1-yl)-3-fluorobenzamide] | ≥ 50% |

Next, values leading:

| Dmax | Compound |
| --- | --- |
| ≥ 50% | COc1cc(O[C@H]2C(C)(C)[C@H](NC(=O)c3ccc(N4CCC(CN5CC[C@H](n6ncc7c(N8CCC(=O)NC8=O)cccc76)[C@H](F)C5)CC4)c(F)c3)C2(C)C)ccc1C#N [Example 26, N-((1r,3r)-3-(4-Cyano-3-methoxyphenoxy)-2,2,4,4-tetramethylcyclobutyl)-4-(4-(((3R,4S)-4-(4-(2,4-dioxotetrahydropyrimidin-1(2H)-yl)-1H-indazol-1-yl)-3-fluoropiperidin-1-yl)methyl)piperidin-1-yl)-3-fluorobenzamide] |
| ≥ 50% | COc1cc(O[C@H]2C(C)(C)[C@H](NC(=O)c3ccc(N4CCC(CN5CCC(n6ncc7c(N8CCC(=O)NC8=O)c(F)ccc76)CC5)CC4)c(F)c3)C2(C)C)ccc1C#N [Example 25, N-((1r,3r)-3-(4-Cyano-3-methoxyphenoxy)-2,2,4,4-tetramethylcyclobutyl)-4-(4-((4-(4-(2,4-dioxotetrahydropyrimidin-1(2H)-yl)-5-fluoro-1H-indazol-1-yl)piperidin-1-yl)methyl)piperidin-1-yl)-3-fluorobenzamide] |
| ≥ 50% | CC1(C)[C@H](NC(=O)c2ccc(N3CCC(CN4CCC(n5ncc6c(N7CCC(=O)NC7=O)cccc65)CC4)CC3)cc2)C(C)(C)[C@H]1Oc1ccc(C#N)c2ncccc12 [Example 29, N-((1r,3r)-3-((8-Cyanoquinolin-5-yl)oxy)-2,2,4,4-tetramethylcyclobutyl)-4-(4-((4-(4-(2,4-dioxotetrahydropyrimidin-1(2H)-yl)-1H-indazol-1-yl)piperidin-1-yl)methyl)piperidin-1-yl)benzamide] |
| ≥ 50% | CC1(C)[C@H](NC(=O)c2cc(F)c(N3CCC(CN4CCC(n5ncc6c(N7CCC(=O)NC7=O)cccc65)CC4)CC3)cc2F)C(C)(C)[C@H]1Oc1ccc(C#N)c2ncccc12 [Example 35, N-((1r,3r)-3-((8-Cyanoquinolin-5-yl)oxy)-2,2,4,4-tetramethylcyclobutyl)-4-(4-((4-(4-(2,4-dioxotetrahydropyrimidin-1(2H)-yl)-1H-indazol-1-yl)piperidin-1-yl)methyl)piperidin-1-yl)-2,5-difluorobenzamide] |
| ≥ 50% | COc1cc(O[C@H]2C(C)(C)[C@H](NC(=O)c3ccc(N4CCC(CN5CCC(n6ncc7c(N8CCC(=O)NC8=O)cc(F)cc76)CC5)CC4)c(F)c3)C2(C)C)ccc1C#N [Example 24, N-((1r,3r)-3-(4-Cyano-3-methoxyphenoxy)-2,2,4,4-tetramethylcyclobutyl)-4-(4-((4-(4-(2,4-dioxotetrahydropyrimidin-1(2H)-yl)-6-fluoro-1H-indazol-1-yl)piperidin-1-yl)methyl)piperidin-1-yl)-3-fluorobenzamide] |
| ≥ 50% | COc1cc(O[C@H]2C(C)(C)[C@H](NC(=O)c3ccc(N4CCC(CN5CCC(n6ccc7c(N8CCC(=O)NC8=O)c(F)ccc76)CC5)CC4)c(F)c3)C2(C)C)ccc1C#N [Example 23, N-((1r,3r)-3-(4-Cyano-3-methoxyphenoxy)-2,2,4,4-tetramethylcyclobutyl)-4-(4-((4-(4-(2,4-dioxotetrahydropyrimidin-1(2H)-yl)-5-fluoro-1H-indol-1-yl)piperidin-1-yl)methyl)piperidin-1-yl)-3-fluorobenzamide] |
